Columns and labels:
Format in all cases: in vivo, human
[1] = Pharmacokinetics after oral single- and multiple-dose administration
Method: (§1) A single-blinded, single- (SDSS) and multiple-dose (MDSS), placebo-controlled, dose-escalation study is designed to evaluate the safety, pharmacokinetics, and pharmacodynamics of orally administered study drug in healthy obese men and women. Three different groups of subjects complete a one-step escalation of the study drug dose within Periods 1 and 2 (SDSS). The design includes a total of 6 active doses (0.1, 1, 10, 30, 60, and 100 mg) to be tested. The decision to escalate to higher doses is based on the safety assessment of preceding doses. The minimum time between dose escalations within Periods 1 and 2 is one week.
(§2) Each of the 3 groups of subjects consist of approximately 9 subjects in a 2:1 ratio of active treatment to placebo, where the order of placebo administration is randomized across both the SDSS and MDSS portions of the study. All 3 groups of subjects shall be scheduled to participate in both SDSS and MDSS portions. However, the SDSS portion is completed and analyzed several months prior to beginning the MDSS (Period 3/4). The 45-day MDSS portion of the original study is designed to test 4 active doses (0.025, 0.1, 1 and 10 mg) administered daily for the first 14 days of the study. The MDSS portion recruits subjects to form 4 groups of subjects. Approximately 36 subjects (9 per dose group) are enrolled into the MDSS portion of the study.
The median time at maximal concentration (tmax) was approximately 0.5 to 1 hour. The exposure appeared dose-proportional within the studied range.

[2] = system: healthy obese men and women; test: Lipid pharmacodynamics (LDL-C, ApoB, ApoC), SDSS clinical study
From the text: (§3) A single-blinded, single- (SDSS) and multiple-dose (MDSS), placebo-controlled, dose-escalation study is designed to evaluate the safety, pharmacokinetics, and pharmacodynamics of orally administered study drug in healthy obese men and women. Three different groups of subjects complete a one-step escalation of the study drug dose within Periods 1 and 2 (SDSS). […] The decision to escalate to higher doses is based on the safety assessment of preceding doses. The minimum time between dose escalations within Periods 1 and 2 is one week.
(§4) Safety is assessed throughout the study by physical examination, adverse event monitoring, electrocardiograms, clinical laboratory tests, and vital sign measurements. Pharmacodynamic evaluation includes a postprandial lipid response during the single-dose safety portion. During the multiple-dose safety study, the pharmacodynamic evaluation includes an oral glucose tolerance test, a fasting lipid panel and a postprandial lipid test. The static lipid panel included triglycerides, total cholesterol, low-density lipoprotein cholesterol [LDL-C], high-density lipoprotein cholesterol [HDL-C], Apoliproteins A1, A2, B, and C3 for cholesterol metabolism. C-reactive protein (CRP) and adiponectin are measured as biomarkers for inflammation and peroxisome proliferated agonist receptor (PPAR) gamma activity, respectively. […]

[3] = system: healthy obese men and women; test: Safety and tolerability assessment, SDSS clinical study; settings: single oral doses 30 and 60 mg
Method: as §1
as §4, with “The static lipid panel included triglycerides, total cholesterol, low-density lipoprotein cholesterol [LDL-C], high-density lipoprotein cholesterol [HDL-C], Apoliproteins A1, A2, B, and C3 for cholesterol metabolism.” left out

[4] = system: healthy obese men and women; test: Meal tolerance test in the single-dose (SDSS) portion of the clinical study; settings: for Triglyceride AUEC(24-37) geometric mean (95% CI): 24-37 h post dose, placebo 44.6
From the text: as §3
(§5) Safety is assessed throughout the study by physical examination, adverse event monitoring, electrocardiograms, clinical laboratory tests, and vital sign measurements. Pharmacodynamic evaluation includes a postprandial lipid response during the single-dose safety portion. During the multiple-dose safety study, the pharmacodynamic evaluation includes an oral glucose tolerance test, a fasting lipid panel and a postprandial lipid test. The static lipid panel included triglycerides, total cholesterol, low-density lipoprotein cholesterol [LDL-C], high-density lipoprotein cholesterol [HDL-C], Apoliproteins A1, A2, B, and C3 for cholesterol metabolism. C-reactive protein (CRP) and adiponectin are measured as biomarkers for inflammation and peroxisome proliferated agonist receptor (PPAR) gamma activity, respectively. The dynamic lipid tests include post-prandial measurements of glucose and triglycerides.
A meal tolerance test (MTT) was performed from 24 to 37 hours after each single dose during the SDSS portion of a clinical trial conducted substantially as described herein by Example 1 using LY518674 as the study drug. The data are analyzed by calculating an area under the concentration-time curve for triglycerides, nonesterified fatty acids and glucose over the postprandial periods from breakfast to lunch (area under the effect curve [AUEC{24-28}]), after lunch (AUEC[28-37]), and the entire test period (AUEC[24-37]).

[5] = system: healthy obese subjects; test: Fasting lipid panel, MDSS clinical study (14 days daily dosing, 30 day follow up)
From the text: FIG. 1. FIG. 1 illustrates the time profile of percentage change from baseline for LDL-C following the administration of daily oral doses of LY518674 over 14 days and 30 day follow up afterwards, in healthy obese subjects in MDSS of a study conducted substantially as described by Example 1.
as §2, §5

Cc1ccc(Cn2nc(CCCc3ccc(OC(C)(C)C(=O)O)cc3)[nH]c2=O)cc1 [LY518674, Propanoic Acid, 2-[4-[3-[2,5-dihydro-1-[(4-methylphenyl)methyl]-5-oxo-1H-1,2,4-triazol-3-yl]propyl]phenoxy]-2-methyl-]
half-life ([1]; both sexes, human, in vivo, oral, as stated in MDSS results): ~10 h
half-life ([1]; both sexes, human, in vivo, oral, as stated in SDSS/PK results): < 10 h
Tmax ([1]; both sexes, human, in vivo, oral, healthy obese subjects, read-out: Median time at maximal concentration (tmax)): 0.5 to 1 h
Time to steady-state exposure ([1]; daily oral dosing): ≤ 2 days
Mean accumulation ratio ([1]; daily oral dosing, steady state): no more than 1.35
Absorption after oral administration ([1]; healthy obese subjects): rapidly absorbed
Pharmacokinetics following single- versus multiple-dose administration ([1]; in vivo): No differences
Exposure versus dose ([1]; within the studied dose range): dose-proportional
ApoB and ApoC change ([2]; SDSS, oral): decreased in a fashion similar to that seen for LDL-C changes
LDL-C change ([2]; single oral dose 0.01 mg): LDL-C reduction consistent with the reduction observed at the higher doses
Tolerability finding prohibiting administration of higher doses [3]: Gastrointestinal intolerance
Lowest dose providing a pharmaceutically desirable effect ([4]; single dose study): 100 µg
Effect on triglyceride (TG) AUEC ([4]; single dose, meal tolerance test 24 to 37 hours post dose): rapid and profound reduction
Dose at which maximum TG AUEC reduction is approached ([4]; single oral dose): approximately 1 mg
Triglyceride AUEC(24-37) geometric mean (95% CI) ([4]; single oral dose 0.01 mg): 37.8 (31.2, 45.8) mmol · hr/L
Triglyceride AUEC(24-37) ratio of geometric means, dose vs. placebo (95% CI) ([4]; single oral dose 0.01 mg, p 0.083): 0.85 (0.70, 1.02) [0.083]
Triglyceride AUEC(24-37) geometric mean (95% CI) ([4]; single oral dose 0.1 mg): 27.6 (23.0, 33.2) mmol · hr/L
Triglyceride AUEC(24-37) ratio of geometric means, dose vs. placebo (95% CI) ([4]; single oral dose 0.1 mg, p <.001): 0.62 (0.52, 0.74) [<.001*]
Triglyceride AUEC(24-37) geometric mean (95% CI) ([4]; single oral dose 1 mg): 23.9 (20.0, 28.6) mmol · hr/L
Triglyceride AUEC(24-37) ratio of geometric means, dose vs. placebo (95% CI) ([4]; single oral dose 1 mg, p <.001): 0.54 (0.45, 0.64) [<.001*]
Triglyceride AUEC(24-37) geometric mean (95% CI) ([4]; single oral dose 10 mg): 24.3 (20.1, 29.5) mmol · hr/L
Triglyceride AUEC(24-37) ratio of geometric means, dose vs. placebo (95% CI) ([4]; single oral dose 10 mg, p <.001): 0.55 (0.45, 0.67) [<.001*]
Triglyceride AUEC(24-37) geometric mean (95% CI) ([4]; single oral dose 30 mg): 20.0 (16.3, 24.5) mmol · hr/L
Triglyceride AUEC(24-37) ratio of geometric means, dose vs. placebo (95% CI) ([4]; single oral dose 30 mg, p <.001): 0.45 (0.37, 0.54) [<.001*]
Triglyceride AUEC(24-37) geometric mean (95% CI) ([4]; single oral dose 60 mg): 25.2 (20.6, 30.7) mmol · hr/L
Triglyceride AUEC(24-37) ratio of geometric means, dose vs. placebo (95% CI) ([4]; single oral dose 60 mg, p <.001): 0.56 (0.46, 0.69) [<.001*]
Lowest dose providing a pharmaceutically desirable effect ([5]; MDSS study): 25 µg
Maintenance of pharmacological effect after dosing stopped ([5]; after 14 days daily dosing): ~14 days
Time for all parameters to return to baseline after cessation of dosing ([5]; after 14 days daily dosing): ≤ 2 weeks
LDL-C change ([5]; daily oral doses 0.025, 0.1, 1 and 10 mg for 14 days, all doses similar magnitude): dramatically reduced
